Experimental data as given in patent EP0739978A2, “Hydantoinase from agrobacterium tumefaciens and its use for the preparation of optically pure N-carbamyl-D-amino acids from racemic hydantoins” (W.R. Grace & Co.-Conn., priority 1995, dated 1996).
Each block holds one compound with its values, some of them ahead of it.

Assays:
[1] = system: A. tumefaciens ATCC 55632 hydantoinase; experiment: Substrate specificity; assay type: biochemical; conditions: for Relative Activity (%): substrate 5 mg/ml in 50 mM Tris-HCl pH 9.0, 40°C, 10 minutes, DL-5-Methylhydantoin = 100; for % Relative Activity with: ATCC 55632: Table 6 values rescaled to 5,6-Dihydrouracil = 100
Procedure: A. Temperature/activity relationship. Hydantoinase activity was measured using a modification of the colorimetric procedure for detecting N-carbamyl amino acids with p-dimethylaminobenzaldehyde (PDMB) as described by Cecere, et al. (FEBS Letters, 57:192 (1975)). Reaction mixtures (total vol. of 0.4 ml in microfuge tubes) contained 75 µmol of DL-5-methylhydantoin (unless designated otherwise) in 50 mM Tris-HCl buffer (pH 9.0) and a suitable amount of hydantoinase extract. Hydantoinase extracts were added to reaction mixtures which had been pre-equilibrated at 40°C, and after 10 minutes incubation at this temperature, reactions were terminated by the addition of 100 µl of 10% (weight/volume) trichloroacetic acid, followed by 100 µl of 10% (weight/volume) PDMB in 6 N HCl. The solutions were mixed, diluted with 0.6 ml of water and centrifuged at 10,000 rpm for 5 minutes. The absorbencies of the supernatant fractions were determined at 440 nm with a Shimadzu Model 160 spectrophotometer. One unit of activity is defined as the amount of enzyme required to form 1 µmol of N-carbamyl amino acid under these conditions. Protein was determined by the BCA assay as per the manufacturer's instructions. (Pierce Chemical Co., Rockford, IL). Specific activity is expressed as units per mg protein. For the determination of the effect of temperature on hydantoinase activity, hydantoinase extracts of A. tumefaciens were added to reaction mixtures pre-equilibrated at various temperatures and activities were determined by the aforementioned assay. Controls (minus enzyme) were run for each temperature and the values obtained were subtracted from the test sample.
Referring to Table 5, the hydantoinase of the present invention differs from previously described hydantoinases in its combination of high temperature and pH optima, pH stability and lack of requirement or stimulation by metal ions. […] E. Substrate specificity. The substrate specificity of the A. tumefaciens ATCC 55632 hydantoinase was determined by adding hydantoinase extract to 0.4 ml of substrate solution (5 mg/ml 50 mM Tris-HCl buffer, pH 9.0) and incubating the reaction mixtures at 40°C in a water bath for 10 minutes in sealed tubes. The reactions were terminated and further processed as described previously. Controls (minus enzyme) were run for each substrate the values obtained were subtracted from the test sample.

[2] = target: hydantoinase (Pseudomonas putida, UniProt Q59699); conditions: Pseudomonas fluorescens DSM 84 hydantoinase; cited from earlier work
Chain of hydantoinase (Pseudomonas putida, UniProt Q59699) (Q59699 whole entry): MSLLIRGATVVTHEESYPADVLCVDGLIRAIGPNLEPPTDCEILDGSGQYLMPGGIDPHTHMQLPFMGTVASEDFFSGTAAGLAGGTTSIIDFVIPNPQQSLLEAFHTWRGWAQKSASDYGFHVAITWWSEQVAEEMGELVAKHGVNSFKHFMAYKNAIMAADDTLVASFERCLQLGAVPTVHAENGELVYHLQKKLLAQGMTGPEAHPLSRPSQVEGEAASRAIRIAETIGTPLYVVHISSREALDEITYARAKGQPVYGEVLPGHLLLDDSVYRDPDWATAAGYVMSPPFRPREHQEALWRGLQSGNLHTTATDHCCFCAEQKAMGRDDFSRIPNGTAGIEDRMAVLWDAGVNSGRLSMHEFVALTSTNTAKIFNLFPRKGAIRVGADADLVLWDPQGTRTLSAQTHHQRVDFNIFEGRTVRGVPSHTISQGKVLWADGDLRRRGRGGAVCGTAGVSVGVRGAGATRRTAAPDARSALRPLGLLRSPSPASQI

[3] = system: hydantoinase; conditions: Agrobacterium radiobacter hydantoinase; cited from earlier work
[4] = system: hydantoinase; conditions: Pseudomonas sp. AJ 11220 hydantoinase; cited from earlier work
[5] = system: hydantoinase; conditions: Agrobacterium IP I671 hydantoinase; cited from earlier work
[6] = system: hydantoinase; conditions: P. striata hydantoinase; cited from earlier work
[7] = system: A. tumefaciens ATCC 55632; experiment: Induction of hydantoinase activity, basal salts medium with yeast extract and glucose; assay type: cell-based; conditions: addition 2 mg/ml, cells harvested after 8 hours; no addition 0.06
Procedure: In particular it should be noted that the substrate specificity of hydantoinase from A. tumefaciens ATCC 55632 differs substantially from those described for other Agrobacterium species (5 and 6) due to its high relative activity with dihydrouracil and 5-methylhydantoin and its relatively low rate of hydrolysis with 5-benzylhydantoin F. Induction of hydantoinase activity. A. tumefaciens ATCC 55632 was grown in a medium containing basal salts medium, 1% yeast extract and 20 mM glucose. Various hydantoins or carbamyl amino acids were added to a concentration of 2 mg/ml to induce hydantoinase activity. Cells were harvested after 8 hours, hydantoinase extracts were prepared and hydantoinase activity was determined. […]

[8] = system: hydantoinase; conditions: Arthrobacter crystallopoietes AM2 hydantoinase; cited from earlier work
[9] = system: A. tumefaciens ATCC 55632; experiment: Induction of hydantoinase activity, complex medium (separate experiment); assay type: cell-based; conditions: for Specific Activity (Units/mg): inducer 1 gm/liter, complex medium, 24 hours at 30°C, no inducer 0.13
Procedure: 2,4-Thiouracil (2,4-dithiouracil) has been reported to induce hydantoinase activity in Agrobacterium IP I-671 by 40-fold [Meyer, et al., FEMS 109:71(1993)]. In a separate experiment, hydantoinase activities were determined following the growth of A. tumefaciens ATCC 55632 on a complex medium (750 ml) (see media preparation described in Example 1) containing the inducing compounds at 1 gm/liter. The culture media were inoculated with 24 hour seed culture of A. tumefaciens ATCC 55632 and incubated for 24 hours with shaking at 30°C. Hydantoinase extracts were prepared and the effect of 2,4-thiouracil on hydantoinase induction of A. tumefaciens is shown in Table 9.

[10] = system: Agrobacterium IP I-671; conditions: cited from earlier work
[11] = system: Hydantoinase extract of A. tumefaciens ATCC 55632; experiment: Hydantoinase activation by metals; assay type: biochemical; conditions: 2 mM metal ion, dialyzed extract pre-incubated 30 minutes, assay at 40°C pH 9.0; control without addition 26.4
Procedure: Reaction mixtures (total vol. of 0.4 ml in microfuge tubes) contained 75 µmol of DL-5-methylhydantoin (unless designated otherwise) in 50 mM Tris-HCl buffer (pH 9.0) and a suitable amount of hydantoinase extract. Hydantoinase extracts were added to reaction mixtures which had been pre-equilibrated at 40°C, and after 10 minutes incubation at this temperature, reactions were terminated by the addition of 100 µl of 10% (weight/volume) trichloroacetic acid, followed by 100 µl of 10% (weight/volume) PDMB in 6 N HCl. The solutions were mixed, diluted with 0.6 ml of water and centrifuged at 10,000 rpm for 5 minutes. The absorbencies of the supernatant fractions were determined at 440 nm with a Shimadzu Model 160 spectrophotometer. One unit of activity is defined as the amount of enzyme required to form 1 µmol of N-carbamyl amino acid under these conditions. Protein was determined by the BCA assay as per the manufacturer's instructions. […] Specific activity is expressed as units per mg protein.
D. Hydantoinase activation by metals. […] Solutions (360 µl) containing either 2 mM Mg^++, Co^++ or Ni^++ in 50 mM Tris buffer, pH 9.0 were pre-incubated with dialyzed hydantoinase extract for 30 minutes at ambient temperature. The reaction mixtures were equilibrated in a 40°C water bath for 2 minutes. The hydantoinase assay was started immediately with the addition of 40 µl DL-5-methylhydantoin (100 mg/ml in 50 mM Tris-HCl buffer, pH 9.0).

Compound: CCC(C)C1NC(=O)NC1=O (racemic) [DL-5-(sec)-Butylhydantoin]
Relative Activity (%) [1]: 76%

Compound: O=C1NC(=O)C(Cc2ccccc2)N1 (racemic) [DL-5-Benzylhydantoin]
% Relative Activity with: ATCC 55632 [1]: 15%
Relative Activity (%) [1]: 19%
% Relative Activity with: 2 [2]: 2%
% Relative Activity with: 5 [3]: 32%
% Relative Activity with: 4 [4]: 57%
% Relative Activity with: 6 [5]: 100%

Compound: O=C1NC(=O)C(CO)N1 (racemic) [DL-5-Hydroxymethylhydantoin]
Relative Activity (%) [1]: 22%

Relative Activity (%) [1]: 77%
Compound: CC(C)CC1NC(=O)NC1=O (racemic) [DL-5-Isobutylhydantoin]

Relative Activity (%) [1]: 73%
Compound: CC(C)C1NC(=O)NC1=O (racemic) [DL-5-Isopropylhydantoin]

Compound: CC1NC(=O)NC1=O (racemic) [DL-5-Methylhydantoin]
% Relative Activity with: 3 [6]: 45%
Specific Activity (U/mg) [7]: 1.65 U/mg
% Relative Activity with: ATCC 55632 [1]: 80%
Relative Activity (%) [1]: 100%
% Relative Activity with: 1 [8]: 100%
% Relative Activity with: 5 [3]: 24%
% Relative Activity with: 6 [5]: 37%

% Relative Activity with: ATCC 55632 [1]: 68%
Relative Activity (%) [1]: 85%
Compound: O=C1NC(=O)C(c2ccccc2)N1 (racemic) [DL-5-Phenylhydantoin]
% Relative Activity with: 3 [6]: 25%
% Relative Activity with: 1 [8]: 37%
% Relative Activity with: 5 [3]: 51%
% Relative Activity with: 4 [4]: 34%

Compound: CN1CC(=O)NC1=O [1-Methylhydantoin]
Specific Activity (U/mg) [7]: 0.09 U/mg

Specific Activity (Units/mg) [9]: 0.15 Units/mg
Compound: S=c1cc[nH]c(=S)[nH]1 [2,4-Thiouracil]
induction of hydantoinase activity (in words) ([9]; A. tumefaciens ATCC 55632): does not appear to induce hydantoinase activity
induction of hydantoinase activity ([10]; Meyer, et al., FEMS 109:71(1993)): 40 fold

Compound: CSCCC1NC(=O)NC1=O (centres unmarked) [5(2-methylthioethyl) hydantoin]
% Relative Activity with: 3 [6]: 48%
% Relative Activity with: ATCC 55632 [1]: 65%
Relative Activity (%) [1]: 81%
% Relative Activity with: 2 [2]: 41%
% Relative Activity with: 5 [3]: 100%
% Relative Activity with: 4 [4]: 100%
% Relative Activity with: 6 [5]: 55%

Compound: O=C1CCNC(=O)N1 [5,6-Dihydrouracil]
% Relative Activity with: 3 [6]: 100%
Specific Activity (U/mg) [7]: 0.22 U/mg
% Relative Activity with: ATCC 55632 [1]: 100%
Relative Activity (%) [1]: 125%
% Relative Activity with: 1 [8]: 78%
% Relative Activity with: 2 [2]: 100%
% Relative Activity with: 4 [4]: 9%
% Relative Activity with: 6 [5]: 10%

Compound: [Co+2] [Cobalt]
Hydantoinase Activity (Units/ml) [11]: 27.9 Units/ml

Compound: NC(=O)NCC(=O)O [Hydantoic acid]
Specific Activity (U/mg) [7]: 1.34 U/mg

Compound: O=C1CNC(=O)N1 [Hydantoin]
Specific Activity (U/mg) [7]: 1.44 U/mg
increase of hydantoinase activity ([9]; A. tumefaciens ATCC 55632, versus no inducer): 10 fold
Specific Activity (Units/mg) [9]: 1.37 Units/mg
induction of hydantoinase activity (in words) ([10]; FEMS 109:71, 1993): does not induce hydantoinase activity

Hydantoinase Activity (Units/ml) [11]: 24.8 Units/ml
Compound: [Mg+2] [Magnesium]

Compound: C[C@H](NC(N)=O)C(=O)O [N-carbamyl alanine]
Specific Activity (U/mg) [7]: 0.44 U/mg

Compound: NC(=O)N[C@@H](Cc1ccccc1)C(=O)O [N-carbamylphenylalanine]
Specific Activity (U/mg) [7]: 0.13 U/mg

Compound: [Ni+2] [Nickel]
Hydantoinase Activity (Units/ml) [11]: 25.0 Units/ml

Compound: Tryptophan hydantoin
Specific Activity (U/mg) [7]: 0.10 U/mg
